Molecules are shown by their SMILES.

Usually IC50 stands for the concentration at which inhibition is half-maximal.

This experiment deals with human metabotropic Glutamate 4 receptor (mGluR4) (Homo sapiens (Human), UniProt Q14833). In words: Assay A: in vitro testing of mGluR4 potency (glutamate-induced cAMP lowering, HTRF cAMP). The experiment is classed as cell-based. Conditions: HEK293 cells overexpressing human mGluR4; 10 uM L-glutamic acid, 1 uM forskolin; compounds of the present invention. In a few lines: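 HEK293 cells overexpressing human mGluR4 treated 30 min at room temperature with compound plus 10 uM L-glutamate, 1 uM forskolin, 0.5 mM IBMX, 0.1% BSA, 1% DMSO. cAMP read by HTRF (665/615 nm ratio), normalized to glutamate (100%) and no-glutamate (0%) controls as percent of control.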
human metabotropic Glutamate 4 receptor (mGluR4), sequence (Q14833 33-912): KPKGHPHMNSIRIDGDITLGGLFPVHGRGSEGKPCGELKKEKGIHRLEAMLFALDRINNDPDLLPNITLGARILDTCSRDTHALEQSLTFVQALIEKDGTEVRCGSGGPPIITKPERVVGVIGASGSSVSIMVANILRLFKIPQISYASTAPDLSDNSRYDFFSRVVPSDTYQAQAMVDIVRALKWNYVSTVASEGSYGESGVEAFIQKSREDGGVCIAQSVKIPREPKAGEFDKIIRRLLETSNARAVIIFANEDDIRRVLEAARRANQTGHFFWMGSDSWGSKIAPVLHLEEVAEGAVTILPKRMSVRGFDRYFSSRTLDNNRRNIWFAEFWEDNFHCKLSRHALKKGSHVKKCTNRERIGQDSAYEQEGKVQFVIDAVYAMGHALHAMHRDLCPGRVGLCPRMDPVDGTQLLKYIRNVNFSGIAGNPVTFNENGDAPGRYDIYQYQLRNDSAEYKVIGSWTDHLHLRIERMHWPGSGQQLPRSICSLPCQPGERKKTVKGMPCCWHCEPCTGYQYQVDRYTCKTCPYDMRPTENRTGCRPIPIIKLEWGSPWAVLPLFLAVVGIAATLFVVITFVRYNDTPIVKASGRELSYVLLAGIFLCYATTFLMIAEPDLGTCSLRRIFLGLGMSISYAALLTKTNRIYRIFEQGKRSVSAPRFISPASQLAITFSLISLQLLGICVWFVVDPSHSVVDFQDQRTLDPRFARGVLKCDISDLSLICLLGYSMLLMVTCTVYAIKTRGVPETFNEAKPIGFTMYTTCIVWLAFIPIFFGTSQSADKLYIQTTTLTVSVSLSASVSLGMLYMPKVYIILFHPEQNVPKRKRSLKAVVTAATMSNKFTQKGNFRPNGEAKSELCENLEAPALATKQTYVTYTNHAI
On the technique in general: TR-FRET usually uses a lanthanide donor and a delayed reading to cut background.
In the case of `CO[C@H](C)[C@H](NC(=O)c1cnc(C)cn1)c1nc2cc(OC(F)(F)F)ccc2n1C` [Example 43, N-[(1R,2R)-2-methoxy-1-[1-methyl-5-(trifluoromethoxy)-1H-1,3-benzodiazol-2-yl]propyl]-5-methylpyrazine-2-carboxamide], the midpoint of inhibition, the IC50, lay at 10 nM.

Consider `CCn1c([C@@H](NC(=O)c2cnc(C(F)F)cn2)C(C)(C)O)nc2cc(F)ccc21` [Example 65, 5-(difluoromethyl)-N-[(1R)-1-(1-ethyl-5-fluoro-1H-1,3-benzodiazol-2-yl)-2-hydroxy-2-methylpropyl]pyrazine-2-carboxamide], for which the IC50 is 16 nM.

Regarding `Cc1cnc(C(=O)N[C@H](c2nc3cc(C)c(F)cc3n2CC(F)F)C2CC2)cn1` [Example 15, N-[(S)-cyclopropyl[1-(2,2-difluoroethyl)-6-fluoro-5-methyl-1H-1,3-benzodiazol-2-yl]methyl]-5-methylpyrazine-2-carboxamide], it took 3 nM to reach half-maximal inhibition (IC50).

For `Cc1cnc(C(=O)N[C@@H](CC2CC2)c2nc3cc(Cl)ccc3n2CCOC(F)F)cn1` [Example 125, N-[(1S)-1-{5-chloro-1-[2-(difluoromethoxy)ethyl]-1H-1,3-benzodiazol-2-yl}-2-cyclopropylethyl]-5-methylpyrazine-2-carboxamide], the IC50 stood at 7 nM.

In turn, `COCCn1c([C@@H](NC(=O)c2cnc(C)cn2)[C@H]2CCOC2)nc2cc(OC(F)(F)F)ccc21` [Example 62, N-[(S)-[1-(2-methoxyethyl)-5-(trifluoromethoxy)-1H-1,3-benzodiazol-2-yl][(3R)-oxolan-3-yl]methyl]-5-methylpyrazine-2-carboxamide] gave an IC50 of 9 nM.

With `CCn1c([C@@H](NC(=O)c2cnc(C)cn2)[C@H]2CCOC2)nc2cc(F)ccc21` [Example 144, N-[(S)-(1-ethyl-5-fluoro-1H-1,3-benzodiazol-2-yl)[(3R)-oxolan-3-yl]methyl]-5-methylpyrazine-2-carboxamide], the IC50 came to 41 nM.

As to `Cc1cnc(C(=O)N[C@H](c2nc3ccc(Cl)cc3n2CC(F)F)C2CC2)cn1` [Example 157, N-[(S)-[6-chloro-1-(2,2-difluoroethyl)-1H-1,3-benzodiazol-2-yl](cyclopropyl)methyl]-5-methylpyrazine-2-carboxamid], inhibition was half-maximal at 6 nM (IC50).

In turn, `COCCn1c([C@@H](NC(=O)c2cnc(C)cn2)[C@H]2CCCO2)nc2cc(C(F)(F)F)ccc21` (single isomer, unassigned) [Example 71] had an IC50 of 13 nM.

`COCCn1c([C@H](CC2CC2)NC(=O)c2cnc(C)cn2)nc2cc(F)ccc21` [Example 24, N-[(1S)-2-cyclopropyl-1-[5-fluoro-1-(2-methoxyethyl)-1H-1,3-benzodiazol-2-yl]ethyl]-5-methylpyrazine-2-carboxamide] came in with an IC50 of 7 nM.

`Cc1cnc(C(=O)N[C@@H](CC2CC2)c2nc3cc(Cl)ccc3n2C)cn1` [Example 86, N-[(1S)-1-(5-chloro-1-methyl-1H-1,3-benzodiazol-2-yl)-2-cyclopropylethyl]-5-methylpyrazine-2-carboxamide] gave a 50% inhibitory concentration (IC50) of 10 nM.

`O=C(N[C@H](c1nc2cc(F)ccc2n1CC(F)F)C1CC1)c1cnc(C(F)F)cn1` [Example 4, N-[(S)-cyclopropyl[1-(2,2-difluoroethyl)-5-fluoro-1H-1,3-benzodiazol-2-yl]methyl]-5-(difluoromethyl)pyrazine-2-carboxamide] showed an IC50 of 4 nM.

Regarding `CCc1c(Br)ccc2c1nc([C@@H](NC(=O)c1cnc(C)cn1)C(C)(C)O)n2C` [Example 109, N-[(1R)-1-(5-bromo-4-ethyl-1-methyl-1H-1,3-benzodiazol-2-yl)-2-hydroxy-2-methylpropyl]-5-methylpyrazine-2-carboxamide], the IC50 is 6 nM.

`COCCn1c([C@@H](NC(=O)c2cnc(C(F)F)cn2)[C@@H](C)OC)nc2cc(OC(F)(F)F)ccc21` [Example 121, 5-(difluoromethyl)-N-[(1R,2R)-2-methoxy-1-[1-(2-methoxyethyl)-5-(trifluoromethoxy)-1H-1,3-benzodiazol-2-yl]propyl]pyrazine-2-carboxamide] displayed an IC50 of 1 nM.

As for `COCCn1c([C@@H](NC(=O)c2cnc(C)cn2)[C@@H](C)OC(F)F)nc2cc(F)c(F)cc21` [Example 28, N-[(1R,2R)-1-[5,6-difluoro-1-(2-methoxyethyl)-1H-1,3-benzodiazol-2-yl]-2-(difluoromethoxy)propyl]-5-methylpyrazine-2-carboxamide], it took 10 nM to reach half-maximal inhibition (IC50).

In turn, `Cn1c([C@H](CC2CC2)NC(=O)c2cnc(C(F)F)cn2)nc2cc(Cl)ccc21` [Example 106, N-[(1S)-1-(5-chloro-1-methyl-1H-1,3-benzodiazol-2-yl)-2-cyclopropylethyl]-5-(difluoromethyl)pyrazine-2-carboxamide] registered an IC50 of 11 nM.

On to `CCn1c([C@@H](NC(=O)c2cnc(C)cn2)C(C)(C)O)nc2cc(F)c(F)cc21` [Example 50, N-[(1R)-1-(1-ethyl-5,6-difluoro-1H-1,3-benzodiazol-2-yl)-2-hydroxy-2-methylpropyl]-5-methylpyrazine-2-carboxamide], for which the IC50 amounted to 24 nM.

Regarding `Cn1c([C@@H](NC(=O)c2cnc(C(F)F)cn2)C2CC2)nc2cc(Cl)ccc21` [Example 55, N-[(S)-(5-chloro-1-methyl-1H-1,3-benzodiazol-2-yl)(cyclopropyl)methyl]-5-(difluoromethyl)pyrazine-2-carboxamide], it took 7 nM to reach half-maximal inhibition (IC50).

For the molecule `COCCn1c([C@@H](NC(=O)c2cnc(C)cn2)[C@H]2CCCOC2)nc2cc(C(F)(F)F)ccc21` [Example 103, N-[(S)-[1-(2-methoxyethyl)-5-(trifluoromethyl)-1H-1,3-benzodiazol-2-yl][(3R)-oxan-3-yl]methyl]-5-methylpyrazine-2-carboxamide], half-maximal inhibition (IC50) required 8 nM.

In the case of `COCCn1c(C(NC(=O)c2cnc(C)cn2)C2CCCO2)nc2cc(C(F)(F)F)ccc21` (centres unmarked) [Example 19-2, N-{[1-(2-methoxyethyl)-5-(trifluoromethyl)-1H-1,3-benzodiazol-2-yl](oxolan-2-yl)methyl}-5-methylpyrazine-2-carboxamide], it took 62 nM to reach half-maximal inhibition (IC50).

For the molecule `CCn1c([C@@H](NC(=O)c2cnc(C)cn2)[C@@]2(O)CCOC2)nc2cc(C(F)(F)F)ccc21` [Example 167, N-[(R)-[1-ethyl-5-(trifluoromethyl)-1H-1,3-benzodiazol-2-yl][(3S)-3-hydroxyoxolan-3-yl]methyl]-5-methylpyrazine-2-carboxamide], the IC50 came out at 55 nM.

Turning to `Cc1cnc(C(=O)N[C@H](c2nc3c(C4CC4)c(Br)ccc3n2C)C2CC2)cn1` [Example 122, N-[(S)-(5-bromo-4-cyclopropyl-1-methyl-1H-1,3-benzodiazol-2-yl)(cyclopropyl)methyl]-5-methylpyrazine-2-carboxamide], the IC50 came to 1 nM.

`Cc1cnc(C(=O)N[C@H](c2nc3cc(OC(F)(F)F)ccc3n2C2CC2)C2CC2)cn1` [Example 115, N-[(S)-cyclopropyl[1-cyclopropyl-5-(trifluoromethoxy)-1H-1,3-benzodiazol-2-yl]methyl]-5-methylpyrazine-2-carboxamide] yielded an IC50 of 9 nM.

For the molecule `COCCn1c(C(NC(=O)c2cnc(C(F)F)cn2)C2CCOC2)nc2cc(F)ccc21` (single isomer, unassigned) [Example 48-2, 5-(difluoromethyl)-N-{[5-fluoro-1-(2-methoxyethyl)-1H-1,3-benzodiazol-2-yl](oxolan-3-yl)methyl} pyrazine-2-carboxamide], the IC50 amounted to 60 nM.

These data come from patent publication US20240182453A1, “NOVEL SUBSTITUTED PYRAZINE-CARBOXAMIDE DERIVATIVES” (Boehringer Ingelheim International GmbH, priority 2022, published 2024).
